Experimental data from ChEMBL document CHEMBL1159093, “Discovery and optimization of RO-85, a novel drug-like, potent, and selective P2X3 receptor antagonist” (Bioorg Med Chem Lett, 2010).

Experiments:
[1] = molecular target: Melatonin receptor type 1A (Homo sapiens) (UniProt P48039); test: Displacement of [125I]2-iodomelatonin from human recombinant MT1 receptor expressed in CHO cells at 10 uM after 60 mins by scintillation counting; format: cell-based
[2] = molecular target: Thromboxane A2 receptor (Homo sapiens) (UniProt P21731); test: Displacement of [3H]SQ29548 from human recombinant TP receptor expressed in HEK293 cells at 10 uM after 60 mins by scintillation counting; format: cell-based
P2X purinoceptor 4 = P2X purinoceptor 4 (Homo sapiens, UniProt Q99571); test: Antagonist activity at P2X4 receptor; format: functional
[3] = molecular target: Histamine H1 receptor (Homo sapiens) (UniProt P35367); test: Displacement of [3H]pyrilamine from human recombinant histamine H1 receptor expressed in HEK293 cells at 10 uM after 60 mins by scintillation counting; format: cell-based
[4] = Oral bioavailability in rat; format: ADME, organism-based; settings: in vivo
[5] = molecular target: Neurotensin receptor type 1 (Homo sapiens) (UniProt P30989); test: Displacement of [125I]Tyr3-neurotensin from human recombinant NTS1 receptor expressed in CHO cells at 10 uM after 60 mins by scintillation counting; format: cell-based
[6] = molecular target: Type-1 angiotensin II receptor (Homo sapiens) (UniProt P30556); test: Displacement of [125I][Sar1,Ile8]-AT-2 from human recombinant AT1 receptor expressed in HEK293 cells at 10 uM after 120 mins by scintillation counting; format: cell-based
[7] = molecular target: Prostaglandin E2 receptor EP2 subtype (Homo sapiens) (UniProt P43116); test: Displacement of [3H]PGE2 from human recombinant EP2 receptor expressed in HEK293 cells at 10 uM after 120 mins by scintillation counting; format: cell-based
[8] = molecular target: 5-hydroxytryptamine receptor 2A (Homo sapiens) (UniProt P28223); test: Displacement of [3H]ketanserin from human recombinant 5HT2A receptor expressed in HEK293 cells at 10 uM after 60 mins by scintillation counting; format: cell-based
[9] = molecular target: 5-hydroxytryptamine receptor 2C (Homo sapiens) (UniProt P28335); test: Displacement of [3H]mesulergine from human recombinant 5HT2C receptor expressed in HEK293 cells at 10 uM after 120 mins by scintillation counting; format: cell-based
[10] = molecular target: Somatostatin receptor (Mus musculus) (UniProt P30935+O08858+P30875+P30873+P49660); test: Displacement of [125I]Tyr11-somatostatin-14 from somatostatin in mouse AtT-20 cells at 10 uM after 60 mins by scintillation counting; format: cell-based; settings: AtT20
[11] = molecular target: Gastrin/cholecystokinin type B receptor (Homo sapiens) (UniProt P32239); test: Displacement of [125I]CCK-8s from human recombinant CCK2 receptor expressed in CHO cells at 10 uM after 60 mins by scintillation counting; format: cell-based
Rattus norvegicus [12] = organism: Rattus norvegicus; test: Displacement of [35S]TBPS from GABA gated chloride channel in rat cerebral cortex at 10 uM after 120 mins by scintillation counting; format: tissue-based
[13] = molecular target: Glucocorticoid receptor (Homo sapiens) (UniProt P04150); test: Displacement of [3H]dexamethasone from glucocorticoid receptor in human IM9 cells at 10 uM after 6 hrs by scintillation counting; format: cell-based; settings: IM-9
[14] = molecular target: D(1B) dopamine receptor (Homo sapiens) (UniProt P21918); test: Displacement of [3H]SCH 23390 from human recombinant dopamine D5 receptor expressed in rat GH4 cells at 10 uM after 60 mins by scintillation counting; format: cell-based
Rattus norvegicus [15] = organism: Rattus norvegicus; test: Displacement of [3H]a,b-MeATP from P2X receptor in rat urinary bladder at 10 uM after 120 mins by scintillation counting
[16] = molecular target: L-type calcium channel (verapamil binding site) (Rattus norvegicus, UniProt P22002+P27732+Q02485); test: Displacement of [3H]verapamil from verapamil binding site of L-type calcium channel in rat cerebral cortex at 10 uM after 120 mins by scintillation counting; format: tissue-based; settings: probe [3H]verapamil, read-out: Activity
Rattus norvegicus [17] = organism: Rattus norvegicus; test: Displacement of [125I]a-dendrotoxin from potassium channel in rat cerebral cortex at 10 uM after 60 mins by scintillation counting; format: tissue-based
[18] = molecular target: C-C chemokine receptor type 1 (Homo sapiens) (UniProt P32246); test: Displacement of [125I]MIP-1a from human recombinant CCR1 receptor expressed in HEK293 cells at 10 uM after 120 mins by scintillation counting; format: cell-based
[19] = molecular target: Histamine H2 receptor (Homo sapiens) (UniProt P25021); test: Displacement of [125I]APT from human recombinant histamine H2 receptor expressed in CHO cells at 10 uM after 120 mins by scintillation counting; format: cell-based
[20] = Metabolic stability in human liver microsomes; format: ADME, Microsome; settings: read-out: Stability
P2X purinoceptor 7 = P2X purinoceptor 7 (Homo sapiens, UniProt Q99572); test: Antagonist activity at P2X7 receptor; format: functional
[21] = Half life in po dosed rat; format: ADME, organism-based; settings: in vivo
[22] = molecular target: Galanin receptor type 1 (Homo sapiens) (UniProt P47211); test: Displacement of [125I]galanin from human recombinant GAL1 receptor expressed in HEK293 cells at 10 uM after 60 mins by scintillation counting; format: cell-based
[23] = molecular target: 5-hydroxytryptamine receptor 7 (Homo sapiens) (UniProt P34969); test: Displacement of [3H]LSD from human recombinant 5HT7 receptor expressed in CHO cells at 10 uM after 120 mins by scintillation counting; format: cell-based
P2X purinoceptor 2 = P2X purinoceptor 2 (Homo sapiens, UniProt Q9UBL9); test: Antagonist activity at P2X2 receptor; format: functional
[24] = molecular target: Mu-type opioid receptor (Homo sapiens) (UniProt P35372); test: Displacement of [3H]DAMGO from human recombinant mu opioid receptor expressed in HEK293 cells at 10 uM after 120 mins by scintillation counting; format: cell-based
[25] = Metabolic stability in rat liver microsomes; format: ADME, Microsome; settings: read-out: Stability
[26] = molecular target: Pituitary adenylate cyclase-activating polypeptide type I receptor (Homo sapiens) (UniProt P41586); test: Displacement of [125I]PACAP1-27 from human recombinant PAC1 receptor expressed in CHO cells at 10 uM after 120 mins by scintillation counting; format: cell-based
[27] = molecular target: Sodium-dependent dopamine transporter (Homo sapiens) (UniProt Q01959); test: Displacement of [3H]BTCP from human recombinant DAT expressed in CHO cells at 10 uM after 120 mins by scintillation counting; format: cell-based
[28] = molecular target: D(2) dopamine receptor (Homo sapiens) (UniProt P14416); test: Displacement of [3H]methyl-spiperone from human recombinant D2S receptor expressed in HEK293 cells at 10 uM after 60 mins by scintillation counting; format: cell-based
Rattus norvegicus [29] = organism: Rattus norvegicus; test: Displacement of [35S]dATPaS from P2Y receptor in rat cerebral cortex at 10 uM after 60 mins by scintillation counting; format: tissue-based
CHO = test: Displacement of [3H]DADLE from human recombinant delta2 opioid receptor expressed in CHO cells at 10 uM after 120 mins by scintillation counting; format: cell-based
[30] = molecular target: 5-hydroxytryptamine receptor 5A (Homo sapiens) (UniProt P47898); test: Displacement of [3H]LSD from human recombinant 5HT5A receptor expressed in HEK293 cells at 10 uM after 120 mins by scintillation counting; format: cell-based
P2X purinoceptor 1 = P2X purinoceptor 1 (Homo sapiens, UniProt P51575); test: Antagonist activity at P2X1 receptor; format: functional
Sequence of P2X purinoceptor 1 (P51575 whole entry): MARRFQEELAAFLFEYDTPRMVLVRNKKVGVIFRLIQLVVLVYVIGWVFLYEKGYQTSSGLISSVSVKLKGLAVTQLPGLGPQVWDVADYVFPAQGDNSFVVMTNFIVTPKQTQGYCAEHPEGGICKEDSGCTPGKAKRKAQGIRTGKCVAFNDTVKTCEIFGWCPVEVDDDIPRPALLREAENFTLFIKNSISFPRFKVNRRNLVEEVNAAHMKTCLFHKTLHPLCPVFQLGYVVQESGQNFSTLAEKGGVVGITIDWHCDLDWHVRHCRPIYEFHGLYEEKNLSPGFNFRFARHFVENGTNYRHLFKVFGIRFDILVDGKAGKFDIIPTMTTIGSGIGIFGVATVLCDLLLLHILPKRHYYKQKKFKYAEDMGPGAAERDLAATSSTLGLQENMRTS

Sequence of 5-hydroxytryptamine receptor 2A (Homo sapiens) (P28223 whole entry): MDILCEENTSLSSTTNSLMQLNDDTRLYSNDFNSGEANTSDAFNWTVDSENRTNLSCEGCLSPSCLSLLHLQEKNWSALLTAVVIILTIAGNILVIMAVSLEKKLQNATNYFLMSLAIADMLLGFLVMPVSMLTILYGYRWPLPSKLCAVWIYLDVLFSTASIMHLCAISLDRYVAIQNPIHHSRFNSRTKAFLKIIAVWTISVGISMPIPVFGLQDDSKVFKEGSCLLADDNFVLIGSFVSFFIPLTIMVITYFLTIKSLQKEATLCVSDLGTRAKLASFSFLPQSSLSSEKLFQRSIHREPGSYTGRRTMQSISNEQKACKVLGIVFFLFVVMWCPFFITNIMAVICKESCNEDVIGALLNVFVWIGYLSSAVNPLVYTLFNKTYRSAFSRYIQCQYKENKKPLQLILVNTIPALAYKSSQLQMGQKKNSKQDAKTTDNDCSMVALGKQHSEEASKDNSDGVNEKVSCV
Sequence of C-C chemokine receptor type 1 (Homo sapiens) (P32246 whole entry): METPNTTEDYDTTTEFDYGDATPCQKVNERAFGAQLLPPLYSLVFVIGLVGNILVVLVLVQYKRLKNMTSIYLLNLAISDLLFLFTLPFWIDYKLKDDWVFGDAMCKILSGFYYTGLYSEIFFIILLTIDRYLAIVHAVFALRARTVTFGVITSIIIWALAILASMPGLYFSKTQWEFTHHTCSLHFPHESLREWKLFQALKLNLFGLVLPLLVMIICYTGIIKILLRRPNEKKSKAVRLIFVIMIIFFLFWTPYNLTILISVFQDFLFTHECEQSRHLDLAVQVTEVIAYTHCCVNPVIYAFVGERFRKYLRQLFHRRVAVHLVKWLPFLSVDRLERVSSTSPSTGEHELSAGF
Sequence of Type-1 angiotensin II receptor (Homo sapiens) (P30556 whole entry): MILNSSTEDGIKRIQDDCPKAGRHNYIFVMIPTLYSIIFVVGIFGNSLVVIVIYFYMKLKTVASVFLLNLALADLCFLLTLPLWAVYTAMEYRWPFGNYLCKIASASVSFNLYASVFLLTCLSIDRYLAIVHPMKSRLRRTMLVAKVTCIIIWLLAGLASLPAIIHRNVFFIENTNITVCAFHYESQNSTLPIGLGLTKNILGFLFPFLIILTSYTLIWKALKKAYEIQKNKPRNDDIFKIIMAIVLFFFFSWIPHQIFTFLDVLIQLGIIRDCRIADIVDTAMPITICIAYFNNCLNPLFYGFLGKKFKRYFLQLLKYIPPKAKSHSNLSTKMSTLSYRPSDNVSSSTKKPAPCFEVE
Sequence of Melatonin receptor type 1A (Homo sapiens) (P48039 whole entry): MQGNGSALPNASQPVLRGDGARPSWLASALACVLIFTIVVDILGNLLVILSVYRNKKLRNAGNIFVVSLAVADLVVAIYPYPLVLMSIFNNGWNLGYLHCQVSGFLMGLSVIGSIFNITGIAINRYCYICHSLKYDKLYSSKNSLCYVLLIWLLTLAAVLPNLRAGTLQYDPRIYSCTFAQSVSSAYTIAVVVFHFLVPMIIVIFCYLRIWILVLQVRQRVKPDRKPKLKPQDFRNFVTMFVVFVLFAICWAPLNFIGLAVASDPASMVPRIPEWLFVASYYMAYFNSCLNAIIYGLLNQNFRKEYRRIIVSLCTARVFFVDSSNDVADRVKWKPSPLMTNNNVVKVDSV
Sequence of 5-hydroxytryptamine receptor 5A (Homo sapiens) (P47898 whole entry): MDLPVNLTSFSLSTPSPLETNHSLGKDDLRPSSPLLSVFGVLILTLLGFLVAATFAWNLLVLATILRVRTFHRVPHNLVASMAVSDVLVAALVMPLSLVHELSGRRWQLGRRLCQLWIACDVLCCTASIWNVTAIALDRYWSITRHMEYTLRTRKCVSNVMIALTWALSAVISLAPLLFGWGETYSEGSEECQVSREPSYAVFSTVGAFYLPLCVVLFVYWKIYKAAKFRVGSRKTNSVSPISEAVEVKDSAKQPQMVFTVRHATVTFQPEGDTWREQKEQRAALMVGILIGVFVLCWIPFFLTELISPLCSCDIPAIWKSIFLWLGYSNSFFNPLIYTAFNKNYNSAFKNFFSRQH
Sequence of P2X purinoceptor 7 (Q99572 whole entry): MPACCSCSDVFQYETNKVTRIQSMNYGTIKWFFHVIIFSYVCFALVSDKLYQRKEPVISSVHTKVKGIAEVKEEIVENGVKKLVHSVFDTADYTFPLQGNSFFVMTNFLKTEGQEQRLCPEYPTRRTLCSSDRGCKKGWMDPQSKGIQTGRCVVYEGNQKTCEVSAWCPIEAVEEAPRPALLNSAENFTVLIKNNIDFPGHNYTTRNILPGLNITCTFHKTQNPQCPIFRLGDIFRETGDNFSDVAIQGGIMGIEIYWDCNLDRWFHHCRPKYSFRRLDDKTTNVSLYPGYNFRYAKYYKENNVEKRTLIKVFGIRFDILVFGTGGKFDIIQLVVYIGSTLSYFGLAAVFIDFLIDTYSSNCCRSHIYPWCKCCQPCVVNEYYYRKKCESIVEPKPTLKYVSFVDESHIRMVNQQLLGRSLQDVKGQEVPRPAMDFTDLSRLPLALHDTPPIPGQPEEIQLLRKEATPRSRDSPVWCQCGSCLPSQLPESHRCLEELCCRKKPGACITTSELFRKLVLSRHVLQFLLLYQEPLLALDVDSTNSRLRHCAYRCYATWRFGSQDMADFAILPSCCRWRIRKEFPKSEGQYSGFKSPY
Sequence of D(1B) dopamine receptor (Homo sapiens) (P21918 whole entry): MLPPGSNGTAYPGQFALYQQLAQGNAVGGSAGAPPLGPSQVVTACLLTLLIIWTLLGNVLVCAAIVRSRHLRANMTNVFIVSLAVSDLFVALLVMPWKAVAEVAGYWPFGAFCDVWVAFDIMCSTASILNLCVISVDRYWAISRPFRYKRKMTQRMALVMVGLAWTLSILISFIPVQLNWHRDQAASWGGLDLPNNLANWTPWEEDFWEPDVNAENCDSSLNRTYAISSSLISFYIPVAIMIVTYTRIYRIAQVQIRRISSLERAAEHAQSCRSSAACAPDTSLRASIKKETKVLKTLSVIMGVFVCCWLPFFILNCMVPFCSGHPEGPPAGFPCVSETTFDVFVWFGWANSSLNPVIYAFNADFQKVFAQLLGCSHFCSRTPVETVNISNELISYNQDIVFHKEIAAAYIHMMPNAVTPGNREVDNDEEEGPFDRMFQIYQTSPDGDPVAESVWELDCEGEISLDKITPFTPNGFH
Sequence of Histamine H1 receptor (Homo sapiens) (P35367 whole entry): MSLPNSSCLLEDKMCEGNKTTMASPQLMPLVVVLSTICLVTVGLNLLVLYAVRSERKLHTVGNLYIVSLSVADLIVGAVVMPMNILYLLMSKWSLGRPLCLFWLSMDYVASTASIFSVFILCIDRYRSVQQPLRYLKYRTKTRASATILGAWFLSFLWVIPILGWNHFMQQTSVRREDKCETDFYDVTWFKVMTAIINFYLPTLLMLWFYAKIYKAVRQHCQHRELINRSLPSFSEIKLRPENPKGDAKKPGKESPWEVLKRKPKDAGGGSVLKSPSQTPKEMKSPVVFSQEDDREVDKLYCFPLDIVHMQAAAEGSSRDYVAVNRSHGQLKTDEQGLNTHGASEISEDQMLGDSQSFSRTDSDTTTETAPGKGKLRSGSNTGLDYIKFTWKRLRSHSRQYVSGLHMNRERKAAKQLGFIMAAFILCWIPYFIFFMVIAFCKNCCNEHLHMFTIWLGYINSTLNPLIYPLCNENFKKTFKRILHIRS
Sequence of Histamine H2 receptor (Homo sapiens) (P25021 whole entry): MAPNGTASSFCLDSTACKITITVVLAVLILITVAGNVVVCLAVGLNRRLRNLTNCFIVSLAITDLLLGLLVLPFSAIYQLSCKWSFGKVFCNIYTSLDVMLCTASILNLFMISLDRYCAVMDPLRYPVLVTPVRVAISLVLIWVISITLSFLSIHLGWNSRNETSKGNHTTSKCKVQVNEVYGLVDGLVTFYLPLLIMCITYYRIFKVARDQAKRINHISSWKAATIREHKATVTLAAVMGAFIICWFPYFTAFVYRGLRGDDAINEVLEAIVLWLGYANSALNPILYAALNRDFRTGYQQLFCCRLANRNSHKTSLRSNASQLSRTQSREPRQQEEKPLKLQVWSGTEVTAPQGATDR
Sequence of Sodium-dependent dopamine transporter (Homo sapiens) (Q01959 whole entry): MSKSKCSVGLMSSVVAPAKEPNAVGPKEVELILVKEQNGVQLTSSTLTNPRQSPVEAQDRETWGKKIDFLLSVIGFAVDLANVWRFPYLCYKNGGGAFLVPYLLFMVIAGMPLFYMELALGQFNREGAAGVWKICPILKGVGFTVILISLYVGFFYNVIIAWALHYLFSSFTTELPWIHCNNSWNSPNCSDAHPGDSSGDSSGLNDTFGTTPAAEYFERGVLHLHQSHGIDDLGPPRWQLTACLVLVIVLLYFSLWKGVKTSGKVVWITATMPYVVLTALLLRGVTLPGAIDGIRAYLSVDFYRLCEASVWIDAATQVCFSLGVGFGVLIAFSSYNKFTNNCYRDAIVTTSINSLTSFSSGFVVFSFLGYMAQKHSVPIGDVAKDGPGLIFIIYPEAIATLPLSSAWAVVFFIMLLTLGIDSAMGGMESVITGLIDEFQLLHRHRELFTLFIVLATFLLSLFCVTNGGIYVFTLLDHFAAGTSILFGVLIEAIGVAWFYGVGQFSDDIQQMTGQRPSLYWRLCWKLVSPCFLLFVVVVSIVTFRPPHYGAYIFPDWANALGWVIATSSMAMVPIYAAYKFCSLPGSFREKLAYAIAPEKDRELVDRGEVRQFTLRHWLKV

## CC(=O)N1CCN(C[C@@H](C)NC(=O)c2cc3c(-c4ccccc4)nn(C)c3s2)CC1
[1]
  Activity: > 50%
[2]
  Activity: > 50%
P2X purinoceptor 4
  IC50: > 10 µM
[3]
  Activity: > 50%
[4]
  bioavailability: 89%
[5]
  Activity: > 50%
[6]
  Activity: > 50%
[7]
  Activity: > 50%
[8]
  Activity: > 50%
[9]
  Activity: > 50%
[10]
  Activity: > 50%
[11]
  Activity: > 50%
Rattus norvegicus [12]
  Activity: > 50%
[13]
  Activity: > 50%
[14]
  Activity: > 50%
Rattus norvegicus [15]
  Activity: > 50%
[16]
  inhibition at 2 h, 10 µM: > 50%
Rattus norvegicus [17]
  Activity: > 50%
[18]
  Activity: > 50%
[19]
  Activity: > 50%
[20]
  microsomal CLint: 1.7 µL/min/mg
P2X purinoceptor 7
  IC50: > 10 µM
[21]
  half-life: 1.6 h
[22]
  Activity: > 50%
[23]
  Activity: > 50%
P2X purinoceptor 2
  IC50: > 10 µM
[24]
  Activity: > 50%
[25]
  microsomal CLint: 43.7 µL/min/mg
[26]
  Activity: > 50%
[27]
  Activity: > 50%
[28]
  Activity: > 50%
Rattus norvegicus [29]
  Activity: > 50%
CHO
  Activity: > 50%
[30]
  Activity: > 50%
P2X purinoceptor 1
  IC50: > 10 µM
